Like-named read-outs stand apart in the source and are kept apart here.
System: runx1/cmyb+ AGM HSCs
Conditions: for Effect on HSC expression (# embryos altered/# embryos scored): runx1/cmyb+ HSCs, zebrafish embryos
Procedure: A chemical genetic screen was conducted to identify novel pathways that modulate definitive HSC formation during zebrafish embryogenesis. FIG. 1. Genes such as runx1 and cmyb, required for HSC development during mammalian hematopoiesis, are expressed in the ventral wall of the dorsal aorta in a region analogous to the mammalian AGM at thirty-six hours post-fertilization (hpf). […] Wild-type embryos were incubated with individual compounds from the three-somite stage until thirty-six hpf. Probes for runx1 and cmyb were combined and utilized to detect HSCs by in situ hybridization.
Wild-type age-matched embryos were arrayed into 48-well plates (˜5 embryos/well) of individual test compounds and exposed from 3-somites until 36 hpf. […] In situ hybridization for runx1 and cmyb was performed to assess HSCs. Compounds were retested at 10 μM, 20 μM, and 50 μM. Stem cell specificity was assessed using flk1 at 36 hpf. PGE2, PGI2, dmPGE2 and all cox inhibitors (Sigma) were used at 10 μM to 20 μM.
Qualitative scoring (# embryos with altered HSCs/# scored) of runx1/cmyb was conducted using the following criteria: Normal/unchanged=continuous line of runx1/cmyb+ endothelial cells and occasional hematopoietic clusters. Decreased/absent=reduction in runx1/cmyb+ cells, including the presence of large gaps in the line of HSCs, isolated positive cells, or absence of expression. Increased/excess=enhancement in runx1/cmyb^+ cells, including many HSC clusters, a thickened line of HSCs, or ectopic expression.

[1] = exposure from three somites to 36 hpf, runx1/cmyb staining

CC(C)Cc1ccc(C(C)C(=O)O)cc1 (stereo not shown) [Ibuprofen]
effect on AGM HSCs in zebrafish embryos (in words) [1]: reduced stem cells in the aorta

O=S(=O)(NCCNC/C=C/c1ccc(Br)cc1)c1cccc2cnccc12 [H89]
effect on AGM HSCs in zebrafish embryos (in words) [1]: inhibit HCS

COc1cccc(-c2cc(=O)c3ccccc3o2)c1N [PD9805]
effect on AGM HSCs in zebrafish embryos (in words) [1]: inhibit HCS

CCCCC[C@H](O)/C=C/C=C\CCCCCCCC(=O)O [13(S)-HODE]
Effect on HSC expression (# embryos altered/# embryos scored) (Table 1, 36 hpf): Increase (15/25)

CCCCC[C@H](O)/C=C/[C@@H]1[C@@H](C/C=C\CCCC(=O)O)[C@@H](O)C[C@H]1O [PGF2]
effect on AGM HSCs in zebrafish embryos (in words) [1]: no effect

CCCCC[C@H](O)/C=C/[C@H]1[C@H](O)CC(=O)[C@@H]1C/C=C/CCCC(=O)O (relative stereo) [5-trans PGE2]
toxicity in zebrafish embryo screen (Table 4): toxic

CCCCC1(COC(=O)CCC(=O)O)C(=O)N(c2ccccc2)N(c2ccccc2)C1=O [Suxibuzone]
Effect on HSC expression (# embryos altered/# embryos scored) (Table 2, 36 hpf): Decrease (16/30)

CCCc1c(OCCCCc2nnn[nH]2)ccc(C(C)=O)c1O [Ly-171883]
Effect on HSC expression (# embryos altered/# embryos scored) (Table 1, 36 hpf): Increase (17/26)

CCCCC[C@H](O)/C=C/[C@@H]1[C@H]2C/C(=C/CCCC(=O)O)O[C@H]2C[C@H]1O [PGI2]
increased runx1/cmyb expression (# embryos altered/# scored) (20 μM, 36 hpf): 28/47 | effect on AGM HSCs in zebrafish embryos (in words) [1]: increase moderately

CCCCCCCC/C=C\C/C=C\C/C=C\CCCC(=O)O [Mead Acid]
Effect on HSC expression (# embryos altered/# embryos scored) (Table 1, 36 hpf): Increase (24/32) | effect on AGM HSCs in zebrafish embryos (in words) [1]: upregulated HSC formation

CCCCCC1OC1C/C=C\C/C=C\C/C=C\CCCC(=O)O (stereo not shown) [Epoxyeicosatrienoic Acid]
Effect on HSC expression (# embryos altered/# embryos scored) (Table 1, 36 hpf): Increase (17/25)

CC(=O)Oc1ccccc1C(=O)O [Aspirin]
effect on AGM HSCs in zebrafish embryos (in words) [1]: reduced stem cells in the aorta

COc1ccc2cc([C@H](C)C(=O)O)ccc2c1 [Naproxen]
effect on AGM HSCs in zebrafish embryos (in words) [1]: reduced stem cells in the aorta

O=C1Nc2cc(Br)ccc2/C1=C1/Nc2ccccc2/C1=N\O [BIO]
effect on AGM HSCs in zebrafish embryos (in words) [1]: HSC enhancers

C[C@]12CC[C@H]3[C@@H](CC[C@]4(O)C[C@@H](O)CC[C@]34C=O)[C@@]1(O)CC[C@@H]2C1=CC(=O)OC1 [Strophanthidin]
effect on AGM HSCs in zebrafish embryos (in words) [1]: increases AGM stem cells

O=C(O)CCC(=O)c1ccc(-c2ccccc2)cc1 [Fenbufen]
Effect on HSC expression (# embryos altered/# embryos scored) (Table 2, 36 hpf): Decrease (20/26) | effect on AGM HSCs in zebrafish embryos (in words) [1]: decreased HSCs

CC(C)NCC(O)COc1ccc(CC(N)=O)cc1 (stereo not shown) [Atenolol]
effect on AGM HSCs in zebrafish embryos (in words) [1]: heightened production of AGM stem cells

O=C1Cc2c([nH]c3ccc(Br)cc23)-c2ccccc2N1 [Kenpaullone]
effect on AGM HSCs in zebrafish embryos (in words) [1]: inhibit HCSs

[Cl-].[Li+] [lithium chloride]
effect on AGM HSCs in zebrafish embryos (in words) [1]: HSC enhancers

CCCC(CCC)C(=O)O [Valproic Acid]
effect on AGM HSCs in zebrafish embryos (in words) [1]: inhibit HCSs

Cc1ccc(-c2cc(C(F)(F)F)nn2-c2ccc(S(N)(=O)=O)cc2)cc1 [Celecoxib]
decreased runx1/cmyb+ HSCs (# embryos altered/# scored) (20 μM, 36 hpf): 26/31

CC1=C(CC(=O)O)c2cc(F)ccc2/C1=C\c1ccc([S+](C)[O-])cc1 (stereo not shown) [Sulindac]
Effect on HSC expression (# embryos altered/# embryos scored) (Table 2, 36 hpf): Decrease (18/31)

CCCCC[C@H](O)/C=C/[C@H]1C(=O)C=C[C@@H]1C/C=C\CCCC(=O)O [Prosteglandin J2]
Effect on HSC expression (# embryos altered/# embryos scored) (Table 2, 36 hpf): Decrease (12/22)

CCCCCCOC(=O)[C@]1(O)C[C@@H]2O[C@@]1(C)n1c3ccccc3c3c4c(c5c6ccccc6n2c5c31)C(=O)NC4 [KT5720]
effect on AGM HSCs in zebrafish embryos (in words) [1]: inhibit HCS

N#CC(=C(/N)Sc1ccccc1N)/C(C#N)=C(\N)Sc1ccccc1N [U0126]
effect on AGM HSCs in zebrafish embryos (in words) (zebrafish, in vivo): inhibit HCS

Reference: patent US10272110B2, “Methods for promoting HSC engraftment” (CHILDREN'S MEDICAL CENTER CORPORATION, priority 2006, dated 2019)
